We go through 22 compounds from patent US9815831B2, “3,5-disubstituted-3H-imidazo[4,5-B]pyridine and 3,5-disubstituted-3H-[1,2,3]triazolo[4,5-B] pyridine compounds as modulators of c-Met protein kinases” (Rhizen Pharmaceuticals SA, priority 2012, dated 2017).

The target in assay [1] is T1, human recombinant Met kinase (Homo sapiens, UniProt P08581).
T1 construct: purchased Cell Signalling Technology, Beverly, Mass
The assay is described as follows: Colorimetric determination of c-Met kinase activity (HTScan Met Kinase Assay Kit). It counts as biochemical. The note with it: for inhibition at 0.1 µM: 100 nM (cells without *), read-out: c-Met Enzyme % inhibition @ 100 nM; for inhibition: cells marked *: tested @ 300 nM, read-out: c-Met Enzyme % inhibition. From the text: 1. MET Kinase Assay Protocol:
Colorimetric Determination of c-Met Kinase Activity
The receptor tyrosine kinase c-Met is a heterodimeric transmembrane glycoprotein involved in several cellular processes that aid in tumor progression. Phosphorylation of the tyrosine residues in the c-Met kinase domain is critical for its activity and the resulting down-stream effects. The colorimetric assay allows detection of the phosphorylated form of a biotinylated peptide upon activation of human recombinant Met kinase.
MET Kinase Assay Protocol:
c-Met Kinase activity shall be determined using an HTScan® Met Kinase Assay Kit (Cell Signalling Technology, Beverly, Mass.) with modifications. All incubations are carried out at room temperature. Briefly, 12.5 μl of a 4× reaction cocktail (DTT/Kinase buffer containing appropriate quantity of human Met kinase) is added to each well of a 96-well plate containing 12.5 μl pre-diluted compound of interest and incubated for 5 minutes. After the initial incubation, 25 μl/well of 2×ATP/biotinylated peptide is added and incubated for an additional 30 minutes. The reaction is terminated by the addition of 50 μl/well stop buffer (50 mM EDTA, pH 8.0). The reaction mixture (25 μl/well) is then transferred to a streptavidin coated plate (Perkin Elmer, Cat#4009-0010) containing 75 μl dH2O and incubated for 60 minutes. The plate is washed with 200 μl/well wash buffer (1×PBS, 0.05% Tween-20). After washing, 100 μl/well phospho-tyrosine mAb (1:1000 in wash buffer containing 1% BSA) is added and incubated for 60 minutes. After another round of washes, 100 μl/well europium labelled anti-mouse IgG (1:500 in wash buffer containing 1% BSA) is added and incubated for an additional 30 minutes. Following additional washes, 100 μl/well Delfia^(R) enhancement solution (Perkin Elmer, Cat#1244-105) is added and incubated for 45 minutes. Florescence is measured on a microplate reader (BMG Labtech., Germany) at 340 nm (excitation) and 615 nm (emission) for calculating % inhibition. Data generated can be analyzed further using Graphpad Prism (Graphpad software, San Diego Calif.) for determination of IC50.
Results: The results are as given below in Table 4A, 4B and 4C as % Inhibition or IC50 of c-Met

The test system of assay [2] is MKN-45. Put plainly: Inhibition of MKN-45 proliferation (MTT). The note with it: Homo sapiens, MKN-45 proliferation; for inhibition at 0.1 µM: 100 nM, read-out: MKN45 % inhibition @ 100 nM; for GI50: read-out: MKN45 GI50. It counts as cell-based, human. As to the method:
3. Inhibition of MKN-45 Proliferation:
Cell proliferation assays were carried out using the high Met expressing human gastric adenocarcinoma cell line, MKN-45, according to the following schedule: • Day 1: Cells were plated in 96-well plates in complete growth medium. • Day 2: Compounds at desired concentrations were added. • Day 5: Cell viability was determined using the 3-[4,5-dimethylthiazol-2-yl]-2,5-diphenyltetrazolium bromide (MTT) dye reduction test. Results: The results are as given as % Inhibition of MKN-45 proliferation at 100 nM and GI50 values in Table 4A to 4C above. 4. Inhibition of c-Met Kinase Phosphorylation in MKN-45 Cells: […]

Where two headings read alike, the source gives them in different places.

T1 sequence (P08581 25-1390): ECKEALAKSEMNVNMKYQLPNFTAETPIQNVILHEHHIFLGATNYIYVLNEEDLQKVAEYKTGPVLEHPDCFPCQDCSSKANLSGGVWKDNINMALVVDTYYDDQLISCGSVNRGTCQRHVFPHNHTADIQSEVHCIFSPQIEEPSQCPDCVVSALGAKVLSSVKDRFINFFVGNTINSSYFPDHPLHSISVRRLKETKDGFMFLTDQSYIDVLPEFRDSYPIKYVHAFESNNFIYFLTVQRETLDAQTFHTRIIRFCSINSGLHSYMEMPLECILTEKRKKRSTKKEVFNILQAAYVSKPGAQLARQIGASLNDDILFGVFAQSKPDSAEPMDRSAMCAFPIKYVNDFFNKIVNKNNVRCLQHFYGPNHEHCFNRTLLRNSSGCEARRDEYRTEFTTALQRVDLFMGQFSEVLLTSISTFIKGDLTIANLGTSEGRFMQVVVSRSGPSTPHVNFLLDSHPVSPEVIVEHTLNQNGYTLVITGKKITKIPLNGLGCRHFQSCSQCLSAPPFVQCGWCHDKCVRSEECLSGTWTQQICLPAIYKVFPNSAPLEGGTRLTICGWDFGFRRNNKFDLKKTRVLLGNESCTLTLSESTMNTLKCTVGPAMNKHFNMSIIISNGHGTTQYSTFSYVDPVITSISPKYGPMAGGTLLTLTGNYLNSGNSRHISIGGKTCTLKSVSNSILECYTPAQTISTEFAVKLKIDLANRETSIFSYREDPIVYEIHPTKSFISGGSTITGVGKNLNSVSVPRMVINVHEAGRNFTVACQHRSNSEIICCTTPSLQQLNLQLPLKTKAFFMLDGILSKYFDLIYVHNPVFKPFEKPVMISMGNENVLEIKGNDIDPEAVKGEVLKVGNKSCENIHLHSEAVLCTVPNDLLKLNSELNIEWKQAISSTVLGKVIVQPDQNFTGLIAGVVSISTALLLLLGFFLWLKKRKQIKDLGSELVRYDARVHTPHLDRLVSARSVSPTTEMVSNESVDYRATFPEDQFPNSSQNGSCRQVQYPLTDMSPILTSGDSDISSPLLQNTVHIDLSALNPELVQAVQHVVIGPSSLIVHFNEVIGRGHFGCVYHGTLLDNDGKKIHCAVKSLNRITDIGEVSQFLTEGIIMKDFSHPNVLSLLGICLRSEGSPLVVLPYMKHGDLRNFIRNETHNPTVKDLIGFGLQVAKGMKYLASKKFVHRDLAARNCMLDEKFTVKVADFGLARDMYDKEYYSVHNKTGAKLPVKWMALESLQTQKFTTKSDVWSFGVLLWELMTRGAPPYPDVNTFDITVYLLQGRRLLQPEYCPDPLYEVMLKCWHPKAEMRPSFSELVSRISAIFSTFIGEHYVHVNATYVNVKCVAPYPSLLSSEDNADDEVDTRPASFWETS

As for `Cc1cc(-c2ccc3nnn(Cc4ccc5ncccc5c4)c3n2)ccc1C(=O)NOC(C)(C)CO` [Example 39, N-(1-hydroxy-2-methylpropan-2-yloxy)-2-methyl-4-(3-(quinolin-6-ylmethyl)-3H-[1,2,3]triazolo[4,5-b]pyridin-5-yl)benzamide], the inhibition (in general, the percentage by which the read-out fell short of the control) at 0.1 µM was 75 to 100% in assay [1] (Table 4A) and 75 to 100% in assay [2] (MKN-45, Table 4A). On to `Cc1cc(-c2ccc3ncn(Cc4ccc5ncccc5c4)c3n2)ccc1C(=O)NOCCO` [Example 111, N-(2-Hydroxy-ethoxy)-2-methyl-4-(3-quinolin-6-ylmethyl-3H-imidazo[4,5-b]pyridin-5-yl)-benzamide], for which the inhibition at 0.1 µM in assay [1] (Table 4B) was 75 to 100%; in assay [2] (MKN-45, Table 4B), less than 25%. For `C/C(=N\Nc1ccccn1)c1ccc2nnn(Cc3ccc4ncccc4c3)c2n1` [Example 51, 6-((5-(1-(2-(pyridin-2-yl)hydrazono)ethyl)-3H-[1,2,3]triazolo[4,5-b]pyridin-3-yl)methyl)quinoline], in assay [1] (Table 4A), the inhibition is less than 25%. Moreover, the inhibition at 0.1 µM in assay [2] (MKN-45, Table 4A) is less than 25%. Turning to `Cc1nc2ccc(-c3ccc(C(N)=O)c(Cl)c3)nc2n1Cc1ccc2ncccc2c1` [Example 1020, 2-chloro-4-(2-methyl-3-(quinolin-6-ylmethyl)-3H-imidazo[4,5-b]pyridin-5-yl)benzamide], in assay [1] (Table 4C), the inhibition was less than 25%. Moreover, the inhibition at 0.1 µM in assay [2] (MKN-45, Table 4C) was 50 to 75%. As for `CNC(=O)CCNC(=O)c1ccc(-c2ccc3nnn(Cc4ccc5ncccc5c4)c3n2)cc1` [Example 4, N-(3-(methylamino)-3-oxopropyl)-4-(3-(quinolin-6-ylmethyl)-3H-[1,2,3]triazolo[4,5-b]pyridin-5-yl)benzamide], the inhibition in assay [1] (Table 4A) was 75 to 100%. Further, in assay [2] (MKN-45, Table 4A), the GI50 (commonly the concentration at which growth is held to half of that of the control) fell in the range of 0.25 to 1 µM. For the compound `O=C(NOCCO)c1ccc(-c2ccc3nnn(Cc4cc5cccnc5cc4F)c3n2)cc1C(F)(F)F` [Example 24, 4-(3-((7-fluoroquinolin-6-yl)methyl)-3H-[1,2,3]triazolo[4,5-b]pyridin-5-yl)-N-(2-hydroxyethoxy)-2-(trifluoromethyl)benzamide], the inhibition at 0.1 µM was in the range of 75 to 100% in assay [1] (Table 4A) and 75 to 100% in assay [2] (MKN-45, Table 4A). Moreover, the GI50 in assay [2] (MKN-45, Table 4A) lay in the range of 0.025 to 0.05 µM. In the case of `C/C(=N\OCCO)c1ccc2nnn(Cc3ccc4ncccc4c3)c2n1` [Example 62, 1-(3-(quinolin-6-ylmethyl)-3H-[1,2,3]triazolo[4,5-b]pyridin-5-yl)ethanone O-2-hydroxyethyl oxime], in assay [1] (Table 4A), the inhibition was less than 25%. The inhibition at 0.1 µM in assay [2] (MKN-45, Table 4A) was less than 25%. Turning to `Cc1cc(-c2ccc3ncn(Cc4ccc5ncccc5c4)c3n2)ccc1C(=O)NOCC(C)(C)O` [Example 112, N-(2-Hydroxy-2-methyl-propoxy)-2-methyl-4-(3-quinolin-6-ylmethyl-3H-imidazo[4,5-b]pyridin-5-yl)-benzamide], the inhibition at 0.1 µM is 75 to 100% in assay [1] (Table 4B) and less than 25% in assay [2] (MKN-45, Table 4B).

Turning to `CONC(=O)c1c(F)cc(-c2ccc3ncn(Cc4ccc5ncccc5c4)c3n2)cc1F` [Example 105, 2,6-difluoro-N-methoxy-4-(3-(quinolin-6-ylmethyl)-3H-imidazo[4,5-b]pyridin-5-yl)benzamide], the inhibition in assay [1] (Table 4B) fell in the range of 25 to 50%. The inhibition at 0.1 µM in assay [2] (MKN-45, Table 4B) is less than 25%. For the compound `O=C(NOCCO)c1ccc(-c2ccc3nnn(Cc4cc5cccnc5cc4F)c3n2)cc1F` [Example 27, 2-fluoro-4-(3-((7-fluoroquinolin-6-yl)methyl)-3H-[1,2,3]triazolo[4,5-b]pyridin-5-yl)-N-(2-hydroxyethoxy)benzamide], in assay [1] (Table 4A), the inhibition at 0.1 µM lay in the range of 75 to 100%. In assay [2] (MKN-45, Table 4A), the inhibition at 0.1 µM was 75 to 100% and the GI50 lay within 0.025 to 0.05 µM. For `C/C(=N\NC(=O)OC(C)(C)C)c1ccc2nnn(Cc3ccc4ncccc4c3)c2n1` [Example 53, tert-butyl 2-(1-(3-(quinolin-6-ylmethyl)-3H-[1,2,3]triazolo[4,5-b]pyridin-5-yl)ethylidene)hydrazinecarboxylate], the inhibition in assay [1] (Table 4A) was less than 25%. In addition, the inhibition at 0.1 µM in assay [2] (MKN-45, Table 4A) is less than 25%. Consider `Cc1cc(-c2ccc3ncn(Cc4ccc5ncccc5c4)c3n2)ccc1C(N)=O` [Example 1018, 2-methyl-4-(3-(quinolin-6-ylmethyl)-3H-imidazo[4,5-b]pyridin-5-yl) benzamide], for which the inhibition in assay [1] (Table 4C) is 50 to 75%. For the same compound, the inhibition at 0.1 µM in assay [2] (MKN-45, Table 4C) was 25 to 50%. As for `Cc1cc(-c2ccc3nnn(Cc4ccc5ncccc5c4)c3n2)ccc1C(=O)NOC[C@@H](C)O` [Example 38, (R)—N-(2-hydroxypropoxy)-2-methyl-4-(3-(quinolin-6-ylmethyl)-3H-[1,2,3]triazolo[4,5-b]pyridin-5-yl)benzamide], the inhibition at 0.1 µM in assay [1] (Table 4A) was in the range of 75 to 100%; in assay [2] (MKN-45, Table 4A) it was 75 to 100%. In the case of `NC(=O)c1ccc(-c2ccc3ncn(Cc4c(F)cc5ncccc5c4F)c3n2)cc1C(F)(F)F` [Example 1028, 4-[3-(5,7-Difluoro-quinolin-6-ylmethyl)-3H-imidazo[4,5-b]pyridin-5-yl]-2-trifluoromethyl-benzamide], the inhibition at 0.1 µM in assay [1] (Table 4C) was in the range of 75 to 100%; in assay [2] (MKN-45, Table 4C), 75 to 100%. As for `CC(O)CONC(=O)c1ccc(-c2ccc3nnn(Cc4ccc5ncccc5c4)c3n2)cc1Cl` (stereo not drawn) [Example 28, 2-chloro-N-(2-hydroxypropoxy)-4-(3-(quinolin-6-ylmethyl)-3H-[1,2,3]triazolo[4,5-b]pyridin-5-yl)benzamide], the inhibition at 0.1 µM in assay [1] (Table 4A) was in the range of 75 to 100%; in assay [2] (MKN-45, Table 4A), 75 to 100%. Moreover, the GI50 in assay [2] (MKN-45, Table 4A) lay in the range of 0.025 to 0.05 µM. For the compound `Cc1cc(-c2ccc3nnn(Cc4cc5cccnc5cc4F)c3n2)ccc1C(=O)NOCCO` [Example 26, 4-(3-((7-fluoroquinolin-6-yl)methyl)-3H-[1,2,3]triazolo[4,5-b]pyridin-5-yl)-N-(2-hydroxyethoxy)-2-methylbenzamide], the inhibition at 0.1 µM in assay [1] (Table 4A) was 75 to 100%; in assay [2] (MKN-45, Table 4A) it was 75 to 100%. Also, in assay [2] (MKN-45, Table 4A), the GI50 lay within 0.025 to 0.05 µM. As to `NC(=O)c1ccc(-c2ccc3nnn(Cc4ccc5[nH]c(=O)ccc5c4)c3n2)cc1Cl` [Example 1004, 2-chloro-4-(3-((2-oxo-1,2-dihydroquinolin-6-yl)methyl)-3H-[1,2,3]triazolo[4,5-b]pyridin-5-yl)benzamide], in assay [1] (Table 4C), the inhibition was less than 25%. On to `Cc1cc(-c2ccc3nnn(Cc4ccc5ncccc5c4)c3n2)ccc1C(=O)NO` [Example 42, N-Hydroxy-2-methyl-4-(3-quinolin-6-ylmethyl-3H-[1,2,3]triazolo[4,5-b]pyridin-5-yl)-benzamide], for which the inhibition at 0.1 µM in assay [1] (Table 4A) is 75 to 100%. Same read-out and setting: the same measure for `Cc1cc(-c2ccc3nnn(Cc4ccc5ncccc5c4)c3n2)ccc1C(=O)NOCCOC(=O)c1ccccc1` [Example 46, 2-(2-methyl-4-(3-(quinolin-6-ylmethyl)-3H-[1,2,3]triazolo[4,5-b]pyridin-5-yl)benzamidooxy)ethyl benzoate]: 75 to 100%. Turning to `NC(=O)c1ccc(-c2ccc3nnn(Cc4cc5ccc[n+]([O-])c5cc4F)c3n2)cc1Cl` [Example 1002], in assay [1] (Table 4C), the inhibition at 0.1 µM is less than 25%. `Cc1cc(-c2ccc3nnn(Cc4ccc5ncccc5c4)c3n2)ccc1C(=O)NOC[C@H](C)O` [Example 36, (S)—N-(2-hydroxypropoxy)-2-methyl-4-(3-(quinolin-6-ylmethyl)-3H-[1,2,3]triazolo[4,5-b]pyridin-5-yl)benzamide]: the inhibition at 0.1 µM in assay [1] (Table 4A) lay within 75 to 100%. For `O=C1NCc2cc(-c3ccc4nnn(Cc5ccc6ncccc6c5)c4n3)ccc21` [Example 1032, 5-(3-Quinolin-6-ylmethyl-3H-[1,2,3]triazolo[4,5-b]pyridin-5-yl)-2,3-dihydro-isoindol-1-one], the inhibition at 0.1 µM in assay [1] (Table 4C) was 75 to 100%.
